Earlier results in US9012510B2, “Oleoylethanolamide based functional mesophases” (Nestec S.A., priority 2008, dated 2015).

Conditions: Thabuis et al., Lipid Technology 2007, 19, 225

Question: For `CCCCCCCC/C=C\CCCCCCCC(=O)NCCO` [OEA, oleoylethanolamide], which “effect of administration on food intake and gain in body mass” value is on record?
Answer: potent and persistent decrease in food intake and gain in body mass
